Experimental data reported in ChEMBL document CHEMBL1817633, “Evaluation of a cell penetrating prenylated peptide lacking an intrinsic fluorophore via in situ click reaction” (Bioorg Med Chem Lett, 2011).
Peptide text beside a SMILES is read from it. * marks the point of attachment. Geranylgeranyl = CC(C)=CCC/C(C)=C/CC/C(C)=C/CC/C(C)=C/C*; X1 = O=C(O)c1cc(C(=O)*)ccc1-c1c2ccc(=O)cc-2oc2cc(O)ccc12; Pent4ynoyl = C#CCCC(=O)*

Legend:
Type in all cases: ADME, cell-based
HeLa [1] = test: Cellular uptake in human HeLa cells assessed as nuclear localization at 1 uM after 2 hrs by confocal laser scanning microscopy
HeLa [2] = test: Cellular uptake in human HeLa cells at 1 uM after 2 hrs by confocal laser scanning microscopy
HeLa [3] = test: Cellular uptake in human HeLa cells at 1 to 5 uM treated for 1 hr followed by washout measured after 1 hr by flow cytometry

Compound | Drug uptake (HeLa [1]) | Drug uptake (HeLa [2]) | Drug uptake (HeLa [3])
C#CCCC(=O)N[C@@H](CCCCNC(C)=O)C(=O)N[C@@H](C)C(=O)N[C@@H](CCCCN)C(=O)N[C@@H](CCCCN)C(=O)N[C@@H](CO)C(=O)N[C@@H](CCCNC(=N)N)C(=O)N[C@@H](CCCNC(=N)N)C(=O)N[C@@H](CSC/C=C(\C)CC/C=C(\C)CC/C=C(\C)CCC=C(C)C)C(N)=O (Pent4ynoyl-K(Ac)AKKSRRC(Geranylgeranyl)-NH2) | Active | Active | 
C#CCCC(=O)N[C@@H](CCCCNC(=O)c1ccc(-c2c3ccc(=O)cc-3oc3cc(O)ccc23)c(C(=O)O)c1)C(=O)N[C@@H](C)C(=O)N[C@@H](CCCCN)C(=O)N[C@@H](CCCCN)C(=O)N[C@@H](CO)C(=O)N[C@@H](CCCNC(=N)N)C(=O)N[C@@H](CCCNC(=N)N)C(=O)N[C@@H](CSC/C=C(\C)CC/C=C(\C)CC/C=C(\C)CCC=C(C)C)C(N)=O (Pent4ynoyl-K(X1)AKKSRRC(Geranylgeranyl)-NH2) | Not Active | Active | Active
